This is an account of results in patent publication US8748451B2, “HDAC inhibitors and therapeutic methods of using same” (The Board of Trustees of the University of Illinois, priority 2009, dated 2014).

Read-outs that look alike come from different tables or passages of the source. Where only a bound is given, the exact number is not on record here.

Series [1] deals with collagen-induced arthritis model in DBA1/J mice. Kind of series: Collagen-induced arthritis model. It counts as in vivo. The conditions noted are these: 50 and 100 mg/kg IP. An excerpt: In this test, DBA1/J mice (male, 7-8 weeks) were used, with 8 animals per group. Systemic arthritis was induced with bovine collagen type II and CFA, plus an IFA booster injection on day 21.
The results are summarized in FIG. 3, containing graphs of Average Arthritic Score vs. Days of Treatment.

In a further series the test system is primary cortical neurons. Kind of series: HCA oxidative stress neuroprotection assay (MTT viability).
Another series relates to Aβ-infused mice. The series can be described thus: Contextual fear conditioning after Aβ42 infusion. It counts as in vivo. The protocol:
In this test, mice were infused with Aβ42 via cannulas implanted into dorsal hippocampus 15 minutes prior to training. […] Fear learning was assessed 24 hours later.

Another series concerns mice. The series can be described thus: Visible platform test. The conditions noted are these: injected twice a day for two days. It counts as in vivo.
The test system of the next series is murine Treg. The series can be described thus: Murine Treg suppression. It counts as cell-based.
A further series concerns the target Human HDAC6 (Homo sapiens (Human), UniProt Q9UBN7). Kind of series: HDAC6 inhibition assay (fluorogenic p53 peptide substrate). As to conditions: for IC50: mean of two experiments (TSA: 9), 10-dose, 3-fold serial dilution from 30 μM, read-out: HDAC6 IC50 (μM) ± SD. It counts as biochemical.
The target of a further series is Human HDAC1 (Homo sapiens (Human), UniProt Q13547). The series can be described thus: HDAC1 inhibition assay (fluorogenic p53 peptide substrate). It counts as biochemical. As to conditions: read-out: HDAC1 IC50 (μM) ± SD.
In the next series the target is HDAC5 (Homo sapiens (Human), UniProt Q9UQL6). Kind of series: biochemical. The conditions noted are these: mean of two experiments; read-out: HDAC5 IC50 (μM) ± SD.
Another series has as its target HDAC2 (Homo sapiens (Human), UniProt Q92769). Kind of series: biochemical.
A further series addresses HDAC7 (Homo sapiens (Human), UniProt Q8WUI4). The series can be described thus: HDAC7 inhibition assay.
A further series has as its system mice with colitis. The series can be described thus: Colitis in mice. As to conditions: treatment begun once colitis had developed. It counts as in vivo. From the text:
Studies of autoimmunity also are undertaken. In this case, interruption of existing disease is especially important and HDAC6 targeting can be efficacious without any requirement for additional therapy (in contrast to a need for brief low-dose RPM in the very aggressive, fully MHC-mismatched transplant models). […] These studies are extended by assessing whether deletion of HDAC6 in Tregs (Foxp3/Cre) vs. T cells (CD4=Cre) vs. DC (CD11c-Cre) differentially affect the development and severity of colitis. Similarly, control of colitis is assessed by inducing HDAC6 deletion at varying intervals after the onset of colitis with tamoxifen-regulated Cre.

The mark [2] stands for this setting: mean of two experiments (TSA: 9), 10-dose, 3-fold serial dilution from 30 μM.

Sequence of Human HDAC1 (Q13547 whole entry): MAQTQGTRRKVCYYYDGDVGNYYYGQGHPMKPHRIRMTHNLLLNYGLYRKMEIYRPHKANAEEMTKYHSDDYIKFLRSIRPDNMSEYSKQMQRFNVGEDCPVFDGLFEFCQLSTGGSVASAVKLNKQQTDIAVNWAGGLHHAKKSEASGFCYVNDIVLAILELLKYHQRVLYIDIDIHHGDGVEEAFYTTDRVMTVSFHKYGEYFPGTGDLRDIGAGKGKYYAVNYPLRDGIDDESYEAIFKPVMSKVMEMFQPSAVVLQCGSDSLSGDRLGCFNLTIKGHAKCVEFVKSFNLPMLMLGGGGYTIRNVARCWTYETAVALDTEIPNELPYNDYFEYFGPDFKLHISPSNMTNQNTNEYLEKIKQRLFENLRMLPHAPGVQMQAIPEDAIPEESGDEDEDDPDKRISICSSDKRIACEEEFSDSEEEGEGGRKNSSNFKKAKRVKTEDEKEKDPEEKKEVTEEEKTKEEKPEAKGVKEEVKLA
Sequence of Human HDAC6 (Q9UBN7 whole entry): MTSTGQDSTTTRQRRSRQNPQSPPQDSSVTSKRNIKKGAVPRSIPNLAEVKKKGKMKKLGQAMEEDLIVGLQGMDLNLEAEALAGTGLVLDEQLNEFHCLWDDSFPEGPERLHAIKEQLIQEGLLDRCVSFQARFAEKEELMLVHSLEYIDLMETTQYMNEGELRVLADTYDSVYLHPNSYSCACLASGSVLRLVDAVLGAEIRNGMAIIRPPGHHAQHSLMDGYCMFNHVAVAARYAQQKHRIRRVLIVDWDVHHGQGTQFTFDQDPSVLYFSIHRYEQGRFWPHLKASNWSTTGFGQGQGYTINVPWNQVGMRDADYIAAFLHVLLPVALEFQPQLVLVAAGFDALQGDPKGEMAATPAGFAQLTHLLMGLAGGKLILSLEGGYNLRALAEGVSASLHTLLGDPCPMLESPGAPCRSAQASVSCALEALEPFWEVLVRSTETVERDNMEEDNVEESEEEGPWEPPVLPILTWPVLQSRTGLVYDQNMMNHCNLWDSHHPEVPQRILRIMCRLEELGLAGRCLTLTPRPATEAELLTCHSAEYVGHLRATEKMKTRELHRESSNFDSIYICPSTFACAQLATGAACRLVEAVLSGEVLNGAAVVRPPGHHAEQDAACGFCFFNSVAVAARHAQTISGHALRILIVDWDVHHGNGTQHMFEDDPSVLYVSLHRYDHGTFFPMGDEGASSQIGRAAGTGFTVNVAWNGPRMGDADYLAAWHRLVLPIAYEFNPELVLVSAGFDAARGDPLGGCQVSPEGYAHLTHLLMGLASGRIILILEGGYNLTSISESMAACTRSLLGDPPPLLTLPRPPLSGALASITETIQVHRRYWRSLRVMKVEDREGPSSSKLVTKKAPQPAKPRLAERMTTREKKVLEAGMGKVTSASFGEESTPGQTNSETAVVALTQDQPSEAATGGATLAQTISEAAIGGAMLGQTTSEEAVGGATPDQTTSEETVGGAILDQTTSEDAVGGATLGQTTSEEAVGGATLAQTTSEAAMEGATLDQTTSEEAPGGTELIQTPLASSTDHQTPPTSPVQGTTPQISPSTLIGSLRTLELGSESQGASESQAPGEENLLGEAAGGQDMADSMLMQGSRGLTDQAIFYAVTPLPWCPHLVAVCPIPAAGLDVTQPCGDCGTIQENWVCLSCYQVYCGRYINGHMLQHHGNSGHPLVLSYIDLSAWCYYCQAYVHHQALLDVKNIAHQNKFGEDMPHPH
Sequence of HDAC5 (Q9UQL6 whole entry): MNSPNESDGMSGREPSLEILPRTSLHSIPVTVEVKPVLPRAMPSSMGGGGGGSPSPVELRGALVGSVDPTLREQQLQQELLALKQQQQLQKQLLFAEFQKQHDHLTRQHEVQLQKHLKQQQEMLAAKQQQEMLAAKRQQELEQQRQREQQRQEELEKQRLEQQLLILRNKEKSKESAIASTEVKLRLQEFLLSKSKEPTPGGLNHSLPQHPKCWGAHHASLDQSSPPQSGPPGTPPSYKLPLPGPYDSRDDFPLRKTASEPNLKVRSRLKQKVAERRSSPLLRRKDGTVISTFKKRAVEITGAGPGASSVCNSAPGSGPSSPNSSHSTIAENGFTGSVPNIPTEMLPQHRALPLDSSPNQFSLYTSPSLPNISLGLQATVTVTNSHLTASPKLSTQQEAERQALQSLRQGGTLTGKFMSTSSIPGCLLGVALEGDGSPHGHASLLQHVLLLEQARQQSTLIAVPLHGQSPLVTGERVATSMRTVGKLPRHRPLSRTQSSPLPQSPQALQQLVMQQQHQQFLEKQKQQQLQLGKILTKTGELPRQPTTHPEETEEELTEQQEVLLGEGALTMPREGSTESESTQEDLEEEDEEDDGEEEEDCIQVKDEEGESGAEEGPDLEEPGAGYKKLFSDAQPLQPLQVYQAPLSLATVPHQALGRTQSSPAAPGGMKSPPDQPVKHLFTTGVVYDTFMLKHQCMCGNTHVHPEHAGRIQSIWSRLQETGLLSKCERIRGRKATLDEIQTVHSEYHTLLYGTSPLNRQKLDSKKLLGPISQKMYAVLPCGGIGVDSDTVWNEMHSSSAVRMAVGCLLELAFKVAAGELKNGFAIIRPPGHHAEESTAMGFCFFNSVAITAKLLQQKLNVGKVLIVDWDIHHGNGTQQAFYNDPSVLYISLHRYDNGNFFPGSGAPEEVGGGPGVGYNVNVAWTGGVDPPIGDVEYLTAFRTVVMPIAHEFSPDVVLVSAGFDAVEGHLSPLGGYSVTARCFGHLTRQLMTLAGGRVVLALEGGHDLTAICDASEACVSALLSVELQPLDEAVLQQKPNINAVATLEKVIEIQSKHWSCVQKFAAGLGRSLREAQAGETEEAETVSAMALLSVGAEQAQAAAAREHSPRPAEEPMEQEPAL
Sequence of HDAC7 (Q8WUI4 whole entry): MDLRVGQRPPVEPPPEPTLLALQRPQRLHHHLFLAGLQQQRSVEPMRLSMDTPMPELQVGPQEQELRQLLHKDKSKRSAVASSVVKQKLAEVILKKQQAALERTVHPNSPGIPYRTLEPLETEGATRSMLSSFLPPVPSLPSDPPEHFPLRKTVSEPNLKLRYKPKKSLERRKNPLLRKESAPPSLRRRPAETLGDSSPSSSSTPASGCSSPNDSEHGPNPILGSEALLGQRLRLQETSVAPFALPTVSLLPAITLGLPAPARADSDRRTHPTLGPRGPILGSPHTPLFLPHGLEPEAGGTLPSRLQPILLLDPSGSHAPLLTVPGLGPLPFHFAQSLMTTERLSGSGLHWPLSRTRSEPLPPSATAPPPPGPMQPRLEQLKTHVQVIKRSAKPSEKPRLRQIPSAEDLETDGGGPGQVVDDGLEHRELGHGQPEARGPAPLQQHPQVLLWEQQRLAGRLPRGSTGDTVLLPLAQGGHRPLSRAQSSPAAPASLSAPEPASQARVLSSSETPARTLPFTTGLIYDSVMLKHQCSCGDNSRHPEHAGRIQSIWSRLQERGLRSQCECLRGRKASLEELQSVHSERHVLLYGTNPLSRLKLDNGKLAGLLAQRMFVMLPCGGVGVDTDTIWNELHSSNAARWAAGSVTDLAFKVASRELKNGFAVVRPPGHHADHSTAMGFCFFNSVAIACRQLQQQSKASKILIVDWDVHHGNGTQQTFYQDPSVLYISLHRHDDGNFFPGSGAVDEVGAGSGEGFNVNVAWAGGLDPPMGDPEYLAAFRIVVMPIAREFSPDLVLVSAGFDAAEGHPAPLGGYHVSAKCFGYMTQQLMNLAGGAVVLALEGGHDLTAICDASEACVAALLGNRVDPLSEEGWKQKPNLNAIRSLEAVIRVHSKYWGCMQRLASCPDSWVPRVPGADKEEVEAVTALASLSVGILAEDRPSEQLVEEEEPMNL
Sequence of HDAC2 (Q92769 whole entry): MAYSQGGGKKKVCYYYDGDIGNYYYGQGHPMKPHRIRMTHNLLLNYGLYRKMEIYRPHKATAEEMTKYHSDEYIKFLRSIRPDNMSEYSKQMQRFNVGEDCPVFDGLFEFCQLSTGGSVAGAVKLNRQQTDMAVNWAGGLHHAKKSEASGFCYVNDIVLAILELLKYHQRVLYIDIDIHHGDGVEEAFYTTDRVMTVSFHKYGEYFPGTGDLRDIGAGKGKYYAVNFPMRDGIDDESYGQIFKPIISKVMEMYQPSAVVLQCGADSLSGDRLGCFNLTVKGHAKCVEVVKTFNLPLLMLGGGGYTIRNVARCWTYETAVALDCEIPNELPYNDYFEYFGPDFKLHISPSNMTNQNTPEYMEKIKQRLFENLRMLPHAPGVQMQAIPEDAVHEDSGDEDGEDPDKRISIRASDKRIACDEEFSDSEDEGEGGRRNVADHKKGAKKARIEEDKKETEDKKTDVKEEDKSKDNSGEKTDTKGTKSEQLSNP

For the molecule `CN1CCc2c(c3ccccc3n2Cc2ccc(C(=O)NO)cc2)C1` [Compound 6, N-Hydroxy-4-(2-methyl-1,2,3,4-tetrahydro-pyrido[4,3-b]indol-5-ylmethyl)benzamide], the body weight entry in series [1] was “No loss of body weight”. Besides, the “toxicity to neurons when tested alone” value in the series with primary cortical neurons (alone (no HCA), all concentrations shown) is on record as “no toxicity”. Also, in the series with primary cortical neurons (with HCA 5 mM, 24 h), the “concentration at which dose-dependent protection against HCA-induced neuronal cell death starts” value came to 5 µM. Also, in the series with Aβ-infused mice (during the memory experiments), the “signs of overt toxicity (food and liquid intake, weight loss, locomotion, exploratory behavior)” value is listed as “no signs of overt toxicity”. The “freezing response (contextual fear conditioning)” value with Aβ-infused mice (vehicle-infused mice, 25 mg/kg ip) was “no effect”. Moreover, the “effects on motor, sensorial, or motivational skills” value with mice is reported as “no effects”. In addition, in the series on murine Treg, the “concentration enhancing murine Treg suppression” value is listed as “greater than 100 μM”.
Turning to `CN1CCc2c(n(Cc3ccc(C(=O)NO)cc3)c3ccccc23)C1` [Compound 7, N-Hydroxy-4-(2-methyl-1,2,3,4-tetrahydro-b-carbolin-9-ylmethyl)benzamide], the “selectivity for HDAC6 against HDAC1” value on Human HDAC6 (HDAC1 IC50/HDAC6 IC50) is recorded as 3700 fold.
Take `O=C(CCn1c2ccccc2c2ccccc21)NO` [Compound 8, 3-Carbazol-9-yl-N-hydroxy-propionamide]: the IC50 on Human HDAC1 (setting [2]) was over 30 µM; at Human HDAC6, 1.59 ± 0.08 µM.
In the case of `O=C(CCCCn1c2ccccc2c2ccccc21)NO` [Compound 9, 5-Carbazol-9-yl-pentanoic acid hydroxyamide], the IC50 was 12.8 ± 0.7 µM at Human HDAC1 and 2.63 ± 0.04 µM at Human HDAC6.
The like results for `O=C(CCCCCCn1c2ccccc2c2ccccc21)NO` [Compound 10, 7-Carbazol-9-ylheptanoic acid hydroxyamide] were, in that order, 0.204 ± 0.087 µM and 0.006 ± 0.002 µM.
With `O=C(NO)n1c2ccccc2c2ccccc21` [Compound 13, Carbazole-9-carboxylic acid hydroxyamide], the IC50 at Human HDAC1 (setting [2]) and at Human HDAC6 was over 30 µM throughout.
`O=C(CCCCCCC(=O)Nc1ccc([C@H]2O[C@@H](CSc3nc(-c4ccccc4)c(-c4ccccc4)o3)C[C@@H](c3ccc(CO)cc3)O2)cc1)NO` [Tubacin]: the IC50 on HDAC5 turned out to be 3.35 ± 0.03 µM; at HDAC2, 6.27 ± 0.29 µM; on HDAC7, 9.7 ± 1.8 µM. Also, the “rescue of mice with established colitis” value in the series with mice with colitis is listed as “able to rescue mice”.

A word on the IC50: it is the concentration needed to halve the response being measured.
